Measured values from patent publication US12662469B2 (SIRONAX LTD, priority 2018, dated 2026).

System: Cell Necrosis
Experiment: Cell necrosis assay / cell viability assay (necrosis inhibitor activity)
Type: cell-based
Conditions: necrosis inhibitor activity; compounds outside 14-191; read-out: EC50

| Structure (SMILES) | EC50 |
| --- | --- |
| NC(=O)c1ccnc(O[C@@H]2CCN(C(=O)N3N=CC[C@H]3c3cc(F)cc(F)c3)C2)n1 [Compound 332, 2-(((R)-1-((S)-5-(3,5-difluorophenyl)-4,5-dihydro-1H-pyrazole-1-carbonyl)pyrrolidin-3-yl)oxy)pyrimidine-4-carboxamide] | 1 to 1000 nM |
| N#Cc1cncc(O[C@@H]2CCN(C(=O)N3N=CC[C@H]3c3cc(F)cc(F)c3)C2)n1 [Compound 335, 6-(((R)-1-((S)-5-(3,5-difluorophenyl)-4,5-dihydro-1H-pyrazole-1-carbonyl)pyrrolidin-3-yl)oxy)pyrazine-2-carbonitrile] | 1 to 1000 nM |
| N#Cc1ccnc(O[C@@H]2CCN(C(=O)N3N=CC[C@H]3c3cc(F)cc(F)c3)C2)c1 [Compound 336, 2-(((R)-1-((S)-5-(3,5-difluorophenyl)-4,5-dihydro-1H-pyrazole-1-carbonyl)pyrrolidin-3-yl)oxy)isonicotinonitrile] | 1 to 1000 nM |
| N#Cc1cccc(O[C@@H]2CCN(C(=O)N3N=CC[C@H]3c3cc(F)cc(F)c3)C2)n1 [Compound 337, 6-(((R)-1-((S)-5-(3,5-difluorophenyl)-4,5-dihydro-1H-pyrazole-1-carbonyl)pyrrolidin-3-yl)oxy)picolinonitrile] | 1 to 1000 nM |
| O=C(N1CC(Oc2ccc(Cl)nc2F)C1)N1N=CC[C@H]1c1cc(F)cc(F)c1 [Compound 338, (S)-(3-((6-chloro-2-fluoropyridin-3-yl)oxy)azetidin-1-yl)(5-(3,5-difluorophenyl)-4,5-dihydro-1H-pyrazol-1-yl)methanone] | 1 to 1000 nM |
| N#Cc1nc(O[C@@H]2CCN(C(=O)N3N=CC[C@H]3c3cc(F)cc(F)c3)C2)ccc1Cl [Compound 339, 3-chloro-6-(((R)-1-((S)-5-(3,5-difluorophenyl)-4,5-dihydro-1H-pyrazole-1-carbonyl)pyrrolidin-3-yl)oxy)picolinonitrile] | 1 to 1000 nM |
| N#Cc1cc(O[C@@H]2CCN(C(=O)N3N=CC[C@H]3c3cc(F)cc(F)c3)C2)ccn1 [Compound 340, 4-(((R)-1-((S)-5-(3,5-difluorophenyl)-4,5-dihydro-1H-pyrazole-1-carbonyl)pyrrolidin-3-yl)oxy)picolinonitrile] | 1 to 1000 nM |
| N#Cc1ccc(F)c(O[C@@H]2CCN(C(=O)N3N=CC[C@H]3c3cc(F)cc(F)c3)C2)c1 [Compound 341, 3-(((R)-1-((S)-5-(3,5-difluorophenyl)-4,5-dihydro-1H-pyrazole-1-carbonyl)pyrrolidin-3-yl)oxy)-4-fluorobenzonitrile] | 1 to 1000 nM |
| N#Cc1cc(O[C@@H]2CCN(C(=O)N3N=CC[C@H]3c3cc(F)cc(F)c3)C2)ccc1F [Compound 342, 5-(((R)-1-((S)-5-(3,5-difluorophenyl)-4,5-dihydro-1H-pyrazole-1-carbonyl)pyrrolidin-3-yl)oxy)-2-fluorobenzonitrile] | 1 to 1000 nM |
| N#Cc1ccc(O[C@@H]2CCN(C(=O)N3N=CC[C@H]3c3cc(F)cc(F)c3)C2)cc1 [Compound 343, 4-(((R)-1-((S)-5-(3,5-difluorophenyl)-4,5-dihydro-1H-pyrazole-1-carbonyl)pyrrolidin-3-yl)oxy)benzonitrile] | 1 to 1000 nM |
| N#Cc1nccc(N[C@@H]2CCN(C(=O)N3N=CC[C@H]3c3cc(F)cc(F)c3)C2)n1 [Compound 348] | 1 to 1000 nM |
| CC1Oc2ccc(OC3CN(C(=O)N4N=CC[C@H]4c4cc(F)cc(F)c4)C3)cc2NC1=O (stereo partly drawn) [Compound 349, 6-((1-((S)-5-(3,5-difluorophenyl)-4,5-dihydro-1H-pyrazole-1-carbonyl)azetidin-3-yl)oxy)-2-methyl-2H-benzo[b][1,4]oxazin-3(4H)-one] | 1 to 1000 nM |
| CC1Oc2cc(F)c(OC3CN(C(=O)N4N=CC[C@H]4c4cc(F)cc(F)c4)C3)cc2NC1=O (stereo partly drawn) [Compound 350, 6-((1-((S)-5-(3,5-difluorophenyl)-4,5-dihydro-1H-pyrazole-1-carbonyl)azetidin-3-yl)oxy)-7-fluoro-2-methyl-2H-benzo[b][1,4]oxazin-3(4H)-one] | 1 to 1000 nM |
| CC1Oc2cc(F)c(OC3CN(C(=O)N4N=CC[C@H]4c4cc(F)cc(C#N)c4)C3)cc2NC1=O (stereo partly drawn) [Compound 351, 3-fluoro-5-((5S)-1(3-((7-fluoro-2-methyl-3-oxo-3,4-dihydro-2H-benzo[b][1,4]oxazin-6-yl)oxy)azetidine-1-carbonyl)-4,5-dihydro-1H-pyrazol-5. yl)benzonitrile] | 1 to 1000 nM |
| CC1Oc2cc(F)c(OC3CN(C(=O)N4N=CC[C@H]4c4ccccc4)C3)cc2NC1=O (stereo partly drawn) [Compound 352, 7-fluoro-2-methyl-6-((1-((S)-5-phenyl-4,5-dihydro-1H-pyrazole-1-carbonyl)azetidin-3-yl)oxy)-2H-benzo[b][1,4]oxazin-3(4H)-one] | 1 to 1000 nM |
| CC1Oc2ccc(OC3CN(C(=O)N4N=CC[C@H]4c4cc(F)cc(F)c4)C3)cc2NC1=O (stereo partly drawn) [Compound 353, 6-((1-((S)-5-(3,5-difluorophenyl)-4,5-dihydro-1H-pyrazole-1-carbonyl)azetidin-3-yl)oxy)-2-methyl-2H-benzo[b][1,4]oxazin-3(4H)-one] | 1 to 1000 nM |
| CC1Oc2ccc(OC3CN(C(=O)N4N=CC[C@H]4c4cc(F)cc(C#N)c4)C3)cc2NC1=O (stereo partly drawn) [Compound 354, 3-fluoro-5-((5S)-1-(3-((2-methyl-3-oxo-3,4-dihydro-2H-benzo[b][1,4]oxazin-6-yl)oxy)azetidine-1-carbonyl)-4,5-dihydro-1H-pyrazol-5-yl)benzonitrile] | 1 to 1000 nM |

| Structure (SMILES) | EC50 |
| --- | --- |
| CC1Oc2ccc(OC3CN(C(=O)N4N=CC[C@H]4c4ccccc4)C3)cc2NC1=O (stereo partly drawn) [Compound 355, 2-methyl-6-((1-((S)-5-phenyl-4,5-dihydro-1H-pyrazole-1-carbonyl)azetidin-3-yl)oxy)-2H-benzo[b][1,4]oxazin-3(4H)-one] | 1 to 1000 nM |
| COc1cccc(O[C@@H]2CCN(C(=O)N3N=CC[C@H]3c3cc(F)cc(F)c3)C2)n1 [Compound 356, ((S)-5-(3,5-difluorophenyl)-4,5-dihydro-1H-pyrazol-1-yl)((R)-3-((6-methoxypyridin-2-yl)oxy)pyrrolidin-1-yl)methanone] | 1 to 1000 nM |
| O=C(N1CC[C@@H](Oc2cccc(NCCN3CCOCC3)n2)C1)N1N=CC[C@H]1c1cc(F)cc(F)c1 [Compound 358] | 1 to 1000 nM |
| N#Cc1ccnc(O[C@@H]2CCN(C(=O)N3N=CC[C@H]3c3cc(F)cc(F)c3)C2)n1 [Compound 359, 2-(((R)-1-((S)-5-(3,5-difluorophenyl)-4,5-dihydro-1H-pyrazole-1-carbonyl)pyrrolidin-3-yl)oxy)pyrimidine-4-carbonitrile] | 1 to 1000 nM |
| N#Cc1cc(O[C@@H]2CCN(C(=O)N3N=CC[C@H]3c3cc(F)cc(F)c3)C2)ncn1 [Compound 360, 6-(((R)-1-((S)-5-(3,5-difluorophenyl)-4,5-dihydro-1H-pyrazole-1-carbonyl)pyrrolidin-3-yl)oxy)pyrimidine-4-carbonitrile] | 1 to 1000 nM |
| NC(=O)c1cc(O[C@@H]2CCN(C(=O)N3N=CC[C@H]3c3cc(F)cc(F)c3)C2)ncn1 [Compound 361] | 1 to 1000 nM |
| N#Cc1nccc(O[C@@H]2CCN(C(=O)N3N=CC[C@H]3c3cc(F)cc(F)c3)C2)n1 [Compound 362, 4-(((R)-1-((S)-5-(3,5-difluorophenyl)-4,5-dihydro-1H-pyrazole-1-carbonyl)pyrrolidin-3-yl)oxy)pyrimidine-2-carbonitrile] | 1 to 1000 nM |
| COc1nc(O[C@@H]2CCN(C(=O)N3N=CC[C@H]3c3cc(F)cc(F)c3)C2)ncc1F [Compound 363, ((S)-5-(3,5-difluorophenyl)-4,5-dihydro-1H-pyrazol-1-yl)((R)-3-((5-fluoro-4-methoxypyrimidin-2-yl)oxy)pyrrolidin-1-yl)methanone] | 1 to 1000 nM |
| NC(=O)c1nccc(O[C@@H]2CCN(C(=O)N3N=CC[C@H]3c3cc(F)cc(F)c3)C2)n1 [Compound 364, 4-(((R)-1-((S)-5-(3,5-difluorophenyl)-4,5-dihydro-1H-pyrazole-1-carbonyl)pyrrolidin-3-yl)oxy)pyrimidine-2-carboxamide] | 1 to 1000 nM |
| N#Cc1ccc(O[C@@H]2CCN(C(=O)N3N=CC[C@H]3c3cc(F)cc(F)c3)C2)c(Cl)n1 [Compound 365, 6-chloro-5-(((R)-1-((S)-5-(3,5-difluorophenyl)-4,5-dihydro-1H-pyrazole-1-carbonyl)pyrrolidin-3-yl)oxy)picolinonitrile] | 1 to 1000 nM |
| CN(C(=O)OC(C)(C)C)c1nccc(O[C@@H]2CCN(C(=O)N3N=CC[C@H]3c3cc(F)cc(F)c3)C2)n1 [Compound 366, tert-butyl (4-(((R)1-((S)-5-(3,5-difluorophenyl)-4,5-dihydro-1H-pyrazole-1-carbonyl)pyrrolidin-3-yl)oxy)pyrimidin-2-yl)(methyl)carbamate] | 1 to 1000 nM |
| Nc1nccc(O[C@@H]2CCN(C(=O)N3N=CC[C@H]3c3cc(F)cc(F)c3)C2)n1 [Compound 367, ((R)-3-((2-aminopyrimidin-4-yl)oxy)pyrrolidin-1-yl)((S)-5-(3,5-difluorophenyl)-4,5-dihydro-1H-pyrazol-1-yl)methanone] | 1 to 1000 nM |
| CC(=O)Nc1nccc(O[C@@H]2CCN(C(=O)N3N=CC[C@H]3c3cc(F)cc(F)c3)C2)n1 [Compound 368, N-(4-(((R)-1-((S)-5-(3,5-difluorophenyl)-4,5-dihydro-H-pyrazole-1-carbonyl)pyrrolidin-3-yl)oxy)pyrimidin-2-yl)acetamide] | 1 to 1000 nM |
| O=C(Nc1nccc(O[C@@H]2CCN(C(=O)N3N=CC[C@H]3c3cc(F)cc(F)c3)C2)n1)C1CC1 [Compound 369, N-(4-(((R)-1-((S)-5-(3,5-difluorophenyl)-4,5-dihydro-1H-pyrazole-1-carbonyl)pyrrolidin-3-yl)oxy)pyrimidin-2-yl)cyclopropanecarboxamide] | 1 to 1000 nM |
| CNc1nccc(O[C@@H]2CCN(C(=O)N3N=CC[C@H]3c3cc(F)cc(F)c3)C2)n1 [Compound 370] | 1 to 1000 nM |
| O=C(N1CC(=Cc2cc(NCCN3CCOCC3)ccc2F)C1)N1N=CC[C@H]1c1cc(F)cc(F)c1 [Compound 371, (S)-(5-(3,5-difluorophenyl)-4,5-dihydro-1H-pyrazol-1-yl)(3-(2-fluoro-5-((2-morpholinoethyl)amino)benzylidene)azetidin-1-yl)methanone] | 1 to 1000 nM |
| O=C(N1CC(=Cc2cc3[nH]c(=O)oc3cc2F)C1)N1N=CC[C@H]1c1cc(F)cc(F)c1 [Compound 372, (S)-5-((1-(5-(3,5-difluorophenyl)-4,5-dihydro-1H-pyrazole-1-carbonyl)azetidin-3-yildene)methyl)-6-fluorobenzo[d]oxazol-2(3H)-one] | 1 to 1000 nM |
